This passage reports Ki and melting point results from patent US6706757B2, “Chroman derivatives as 5-hydroxytryptamine-6 ligands” (Wyeth, priority 2001, dated 2004).

Where a name gives a salt, the structure may show the parent alone.

The target of the first data set is T1, human cloned 5-HT6 receptors (Homo sapiens, UniProt P50406).
T1 construct: expressed in transfected cells; host or cells: HeLa cells (membrane preparation)
T1 sequence (P50406 whole entry): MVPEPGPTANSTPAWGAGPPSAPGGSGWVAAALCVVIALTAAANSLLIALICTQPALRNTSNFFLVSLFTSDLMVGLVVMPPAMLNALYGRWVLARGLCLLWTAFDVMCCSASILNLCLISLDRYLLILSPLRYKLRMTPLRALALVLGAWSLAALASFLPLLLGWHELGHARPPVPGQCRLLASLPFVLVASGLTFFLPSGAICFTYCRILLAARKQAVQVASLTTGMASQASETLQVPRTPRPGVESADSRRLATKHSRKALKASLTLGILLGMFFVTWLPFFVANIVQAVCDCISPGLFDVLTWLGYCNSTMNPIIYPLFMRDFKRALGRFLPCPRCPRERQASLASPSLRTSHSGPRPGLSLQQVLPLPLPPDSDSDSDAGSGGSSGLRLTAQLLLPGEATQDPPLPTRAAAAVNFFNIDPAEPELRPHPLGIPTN
The data set can be described thus: 5-HT6 binding affinity, [3H]-LSD displacement on membranes of Hela cells expressing human cloned 5-HT6 receptors. The note with it: [3H]-LSD 3.0 nM, Hela cell membranes, 120 min at room temperature. How it is done: The affinity of test compounds for the serotonin 5-HT6 receptor is evaluated in the following manner. Cultured Hela cells expressing human cloned 5-HT6 receptors are harvested and centrifuged at low speed (1,000×g) for 10.0 min to remove the culture media. The harvested cells are suspended in half volume of fresh physiological phosphate buffered saline solution and recentrifuged at the same speed. This operation is repeated. The collected cells are then homogenized in ten volumes of 50 mM Tris.HCl (pH 7.4) and 0.5 mM EDTA. The homogenate is centrifuged at 40,000×g for 30.0 min and the precipitate is collected. The obtained pellet is resuspended in 10 volumes of Tris.HCl buffer and recentrifuged at the same speed. The final pellet is suspended in a small volume of Tris.HCl buffer and the tissue protein content is determined in aliquots of 10-25 μl volumes. Bovine Serum Albumin is used as the standard in the protein determination according to the method described in Lowry et al., J. Biol. Chem., 193:265 (1951). The volume of the suspended cell membranes is adjusted to give a tissue protein concentration of 1.0 mg/ml of suspension. The prepared membrane suspension (10 times concentrated) is aliquoted in 1.0 ml volumes and stored at −70° C. until used in subsequent binding experiments.
Binding experiments are performed in a 96 well microtiter plate format, in a total volume of 200 μl. […] The test compounds are added in 20.0 μl volume.
The reaction is allowed to proceed in the dark for 120 min at room temperature, at which time, the bound ligand-receptor complex is filtered off on a 96 well unifilter with a Packard Filtermate® 196 Harvester. The bound complex caught on the filter disk is allowed to air dry and the radioactivity is measured in a Packard TopCount® equipped with six photomultiplier detectors, after the addition of 40.0 μl Microscint®-20 scintillant to each shallow well. The unifilter plate is heat-sealed and counted in a PackardTopCount® with a tritium efficiency of 31.0%.
Binding in the presence of varying concentrations of test compound is expressed as a percentage of specific binding in the absence of test compound. The results are plotted as log % bound versus log concentration of test compound. […] A linear regression line of data points is plotted, from which the IC50 value is determined and the Ki value is determined based upon the following equation: […]
where L is the concentration of the radioactive ligand used and KD is the dissociation constant of the ligand for the receptor, both expressed in nM.
As for `COc1cccc(CNCC2CCc3ccc(NS(=O)(=O)c4ccccc4)cc3O2)c1` (stereo not shown) [Example 6, N-(2-{[(3-methoxybenzyl)amino]methyl}-3,4-dihydro-2H-chromen-7-yl)benzenesulfonamide], the Ki turned out to be 4 nM.

Consider `C[C@@H](NCC1CCc2ccc(N(C)S(=O)(=O)c3ccccc3Br)cc2O1)c1ccccc1` (stereo partly drawn) [Example 51, 2-bromo-N-methyl-N-[2-({[(1R)-1-phenylethyl]amino}methyl)-3,4-dihydro-2H-chromen-7-yl]benzenesulfonamide], for which the inhibition constant Ki worked out at 3 nM.

`C[C@@H](NCC1CCc2ccc(NS(=O)(=O)c3ccc(Cl)s3)cc2O1)c1ccccc1` (stereo partly drawn) [Example 42, 5-chloro-N-[2-({[(1R)-1-phenylethyl]amino}methyl)-3,4-dihydro-2H-chromen-7-yl]thiophene-2-sulfonamide]: the Ki was determined as 2 nM.

Compound `O=S(=O)(Nc1ccc2c(c1)OC(CNCc1ccc3c(c1)OCO3)CC2)c1ccccc1` (stereo not shown) [Example 11, N-(2-{[(1,3-benzodioxol-5-ylmethyl)amino]methyl}-3,4-dihydro-2H-chromen-7-yl)benzenesulfonamide] registered an inhibition constant (Ki) of 2 nM.

Turning to `O=S(=O)(Nc1ccc2c(c1)OC(CNCCCO)CC2)c1ccc(F)cc1` (stereo not shown) [Example 30, 4-fluoro-N-(2-{[(3-hydroxypropyl)amino]methyl}-3,4-dihydro-2H-chromen-7-yl)benzenesulfonamide], the Ki was 49 nM.

For `C[C@H](NCC1CCc2ccc(NS(=O)(=O)c3ccccc3)cc2O1)c1ccccc1` (stereo partly drawn) [Example 14, N-[2-({[(1S)-1-phenylethyl]amino}methyl)-3,4-dihydro-2H-chromen-7-yl]benzenesulfonamide], the inhibition constant Ki was found to be 10 nM.

In turn, `C[C@@H](NC[C@@H]1CCc2ccc(NS(=O)(=O)c3cccc4ccccc34)cc2O1)c1ccccc1` [Example 46B, N-[(2S)-2({[(1R)-1-phenylethyl]amino}methyl)-3,4-dihydro-2H-chromen-7-yl]naphthalene-1-sulfonamide Hydrochloride] registered a Ki of 2 nM.

Tested on in another data set: not given
Test: not given
Conditions: not given
Consider `C[C@@H](NCC1CCc2ccc(N(C)S(=O)(=O)c3ccc(F)cc3)cc2O1)c1ccccc1` (stereo partly drawn) (as salt: HCl) [Example 52, 4-fluoro-N-methyl-N-[2-({[(1R)-1-phenylethyl]amino}methyl)-3,4-dihydro-2H-chromen-7-yl]benzenesulfonamide], for which the melting point lay within 208 to 210 °C.

Take `C[C@@H](NCC1CCc2ccc(N(C)S(=O)(=O)c3cccc4ccccc34)cc2O1)c1ccccc1` (stereo partly drawn) (as salt: HCl) [Example 55, N-methyl-N-[2-({[(1R)-1-phenylethyl]amino}methyl)-3,4-dihydro-2H-chromen-7-yl]naphthalene-1-sulfonamide]: the melting point lay in the range of 245 to 246 °C.

In the case of `C[C@@H](NCC1CCc2ccc(N(C)S(=O)(=O)c3ccc(Cl)cc3)cc2O1)c1ccccc1` (stereo partly drawn) (as salt: HCl) [Example 53, 4-chloro-N-methyl-N-[2-({[(1R)-1-phenylethyl]amino}methyl)-3,4-dihydro-2H-chromen-7-yl]benzenesulfonamide], the melting point was in the range of 198 to 201 °C.

On to `C[C@@H](NCC1CCc2ccc(N(C)S(=O)(=O)c3ccccc3Br)cc2O1)c1ccccc1` (stereo partly drawn) (as salt: HCl) [Example 51, 2-bromo-N-methyl-N-[2-({[(1R)-1-phenylethyl]amino}methyl)-3,4-dihydro-2H-chromen-7-yl]benzenesulfonamide], for which the melting point lay within 199 to 201 °C.

Take `C[C@@H](NCC1CCc2ccc(N(C)S(=O)(=O)c3ccc(N)cc3)cc2O1)c1ccccc1` (stereo partly drawn) (as salt: HCl) [Example 56, 4-amino-N-methyl-N-[2-({[(1R)-1-phenylethyl]amino}methyl)-3,4-dihydro-2H-chromen-7-yl]benzenesulfonamide]: the melting point was 200 °C (dec.).

As for `COc1ccc(S(=O)(=O)N(C)c2ccc3c(c2)OC(CN[C@H](C)c2ccccc2)CC3)cc1OC` (stereo partly drawn) (as salt: HCl) [Example 54, 3,4-dimethoxy-N-methyl-N-[2-({[(1R)-1-phenylethyl]amino}methyl)-3,4-dihydro-2H-chromen-7-yl]benzenesulfonamide], the melting point lay in the range of 229 to 230 °C.

What is called Ki is a measure of affinity in units of concentration, obtained from inhibition or displacement. Higher therefore signals weaker binding. As a reminder, the melting point is the temperature of the solid-liquid transition.
